Laboratory results as given in patent US20260125382A1, “COMPOUNDS FOR INHIBITING OR DEGRADING CDK2 AND/OR CDK9 AND MEDICINAL USE THEREOF” (KOREA RESEARCH INSTITUTE OF CHEMICAL TECHNOLOGY, priority 2022, published 2026).

How the values were obtained:
CDK2 = target: T1, CDK2 (Homo sapiens, UniProt P24941); assay: CDK protein degradation activity (Western blotting), CDK2; assay type: cell-based; settings: MDA-MB-231 cells, 16 hours, Western blot
T1 construct: endogenous in cells; host or cells: MDA-MB-231
How it was run: (§1)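 Breast cancer line MDA-MB-231, 16 h compound treatment (100 nM–10 μM final, three doses). Immunoblot quantification of CDK2/CDK9 versus tubulin, normalized to DMSO control.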

CDK9 = target: T2, CDK9 (Homo sapiens, UniProt P50750); assay: CDK protein degradation activity (Western blotting), CDK9; assay type: cell-based; settings: MDA-MB-231 cells, 16 hours, Western blot
T2 construct: endogenous in cells; host or cells: MDA-MB-231
T2 sequence (P50750 whole entry): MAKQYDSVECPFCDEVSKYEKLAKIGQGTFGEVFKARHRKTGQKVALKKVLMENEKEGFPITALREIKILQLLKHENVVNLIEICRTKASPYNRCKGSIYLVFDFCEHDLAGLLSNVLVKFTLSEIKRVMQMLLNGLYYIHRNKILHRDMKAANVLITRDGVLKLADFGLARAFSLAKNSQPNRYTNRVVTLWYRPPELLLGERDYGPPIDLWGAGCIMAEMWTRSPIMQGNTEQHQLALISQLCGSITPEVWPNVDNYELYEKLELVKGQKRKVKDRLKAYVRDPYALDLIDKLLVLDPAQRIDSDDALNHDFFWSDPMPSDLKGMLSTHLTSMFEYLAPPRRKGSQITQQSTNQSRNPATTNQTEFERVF
How it was run: as §1

**Q.** Which results are given for O=C1CC[C@H](N2C(=O)c3ccc(N4CCC(CN5CCN(c6ccc(Nc7ncnc8c7ncn8[C@H]7C[C@@H](NC(=O)c8cccc(F)n8)C7)cc6)CC5)CC4)cc3C2=O)C(=O)N1 [Compound 390, N-((1s,3s)-3-(6-((4-(4-((1-(2-(2,6-dioxopiperidin-3-yl)-1,3-dioxoisoindolin-5-yl)piperidin-4-yl)methyl)piperazin-1-yl)phenyl)amino)-9H-purin-9-yl)cyclobutyl)-6-fluoropicolinamide]?
**A.** Enzyme degradation CDK2 (% remaining) @ 0.1 μM (CDK2): 20/20/20%; Enzyme degradation CDK2 (% remaining) @ 1 μM (CDK2): 20/20/20%; Enzyme degradation CDK2 (% remaining) @ 10 μM (CDK2): 20/20/20%; Enzyme degradation CDK9 (% remaining) @ 0.1 μM (CDK9): 10%; Enzyme degradation CDK9 (% remaining) @ 1 μM (CDK9): 0%; Enzyme degradation CDK9 (% remaining) @ 10 μM (CDK9): 0%

**Q.** How did the “Enzyme degradation CDK2 (% remaining) @ 0.1 μM” value (CDK2) turn out when O=C1CCC(N2C(=O)c3ccc(N4CCC(CN5CCN(c6ccc(Nc7ncnc8c7ncn8[C@H]7C[C@@H](NC(=O)c8cccc(Cl)n8)C7)cc6)CC5)CC4)cc3C2=O)C(=O)N1 (stereo partly drawn) [Compound 391, 6-chloro-N-((1s,3s)-3-(6-((4-(4-((1-(2-(2,6-dioxopiperidin-3-yl)-1,3-dioxoisoindolin-5-yl)piperidin-4-yl)methyl)piperazin-1-yl)phenyl)amino)-9H-purin-9-yl)cyclobutyl)picolinamide] was run?
**A.** 10/10/10%

**Q.** What about the “Enzyme degradation CDK2 (% remaining) @ 1 μM” value (CDK2) of the same molecule?
**A.** 10/10/10%

**Q.** What about the “Enzyme degradation CDK2 (% remaining) @ 10 μM” value (CDK2) of the same molecule?
**A.** 10/10/10%

**Q.** What about the “Enzyme degradation CDK9 (% remaining) @ 0.1 μM” value (CDK9) of the same molecule?
**A.** 0/0/0%

**Q.** What about the “Enzyme degradation CDK9 (% remaining) @ 1 μM” value (CDK9) of the same molecule?
**A.** 0/0/0%

**Q.** What about the “Enzyme degradation CDK9 (% remaining) @ 10 μM” value (CDK9) of the same molecule?
**A.** 0/0/0%

**Q.** For N#Cc1cccc(C(=O)NC2CC(n3cnc4c(Nc5ccc(N6CCN(CC7CCN(c8ccc9c(c8)C(=O)N([C@H]8CCC(=O)NC8=O)C9=O)CC7)CC6)cc5)ncnc43)C2)n1 (stereo partly drawn) [Compound 392, 6-cyano-N-((1s,3s)-3-(6-((4-(4-((1-(2-(2,6-dioxopiperidin-3-yl)-1,3-dioxoisoindolin-5-yl)piperidin-4-yl)methyl)piperazin-1-yl)phenyl)amino)-9H-purin-9-yl)cyclobutyl)picolinamide], which “Enzyme degradation CDK2 (% remaining) @ 0.1 μM” value (CDK2) is on record?
**A.** 0%

**Q.** And the “Enzyme degradation CDK2 (% remaining) @ 1 μM” value (CDK2)?
**A.** 0%

**Q.** What about the “Enzyme degradation CDK2 (% remaining) @ 10 μM” value (CDK2) of the same molecule?
**A.** 10%

**Q.** What about the “Enzyme degradation CDK9 (% remaining) @ 0.1 μM” value (CDK9) of the same molecule?
**A.** 0/0/0%

**Q.** And the “Enzyme degradation CDK9 (% remaining) @ 1 μM” value (CDK9)?
**A.** 0/0/0%

**Q.** And the “Enzyme degradation CDK9 (% remaining) @ 10 μM” value (CDK9)?
**A.** 0/0/0%

**Q.** How did the “Enzyme degradation CDK2 (% remaining) @ 0.1 μM” value (CDK2) turn out when O=C1CC[C@H](N2C(=O)c3ccc(N4CCC(CN5CCN(c6ccc(Nc7ncnc8c7ncn8C7CC(NC(=O)c8cccc(C(F)(F)F)n8)C7)cc6)CC5)CC4)cc3C2=O)C(=O)N1 (stereo partly drawn) [Compound 393, N-((1s,3s)-3-(6-((4-(4-((1-(2-(2,6-dioxopiperidin-3-yl)-1,3-dioxoisoindolin-5-yl)piperidin-4-yl)methyl)piperazin-1-yl)phenyl)amino)-9H-purin-9-yl)cyclobutyl)-6-(trifluoromethyl)picolinamide] was run?
**A.** 10/10/10%

**Q.** And the “Enzyme degradation CDK2 (% remaining) @ 1 μM” value (CDK2)?
**A.** 10/10/10%

**Q.** And the “Enzyme degradation CDK2 (% remaining) @ 10 μM” value (CDK2)?
**A.** 10/10/10%

**Q.** And the “Enzyme degradation CDK9 (% remaining) @ 0.1 μM” value (CDK9)?
**A.** 0/0/0%

**Q.** And the “Enzyme degradation CDK9 (% remaining) @ 1 μM” value (CDK9)?
**A.** 0/0/0%

**Q.** And the “Enzyme degradation CDK9 (% remaining) @ 10 μM” value (CDK9)?
**A.** 0/0/0%

**Q.** How did the “Enzyme degradation CDK2 (% remaining) @ 0.1 μM” value (CDK2) turn out when O=C1CC[C@H](N2C(=O)c3ccc(N4CC(C(=O)N5CCC(CN6CCN(c7ccc(Nc8ncnc9c8ncn9[C@H]8C[C@@H](NC(=O)c9c(Cl)cccc9Cl)C8)cc7)CC6)CC5)C4)cc3C2=O)C(=O)N1 [Compound 394, 2,6-dichloro-N-((1s,3s)-3-(6-((4-(4-((1-(1-(2-(2,6-dioxopiperidin-3-yl)-1,3-dioxoisoindolin-5-yl)azetidin-3-carbonyl)piperidin-4-yl)methyl)piperazin-1-yl)phenyl)amino)-9H-purin-9-yl)cyclobutyl)benzamide] was run?
**A.** 20/20/20%

**Q.** And the “Enzyme degradation CDK2 (% remaining) @ 1 μM” value (CDK2)?
**A.** 20/20/20%

**Q.** What about the “Enzyme degradation CDK2 (% remaining) @ 10 μM” value (CDK2) of the same molecule?
**A.** 20/20/20%

**Q.** And the “Enzyme degradation CDK9 (% remaining) @ 0.1 μM” value (CDK9)?
**A.** 0/0/0%

**Q.** What about the “Enzyme degradation CDK9 (% remaining) @ 1 μM” value (CDK9) of the same molecule?
**A.** 0/0/0%

**Q.** What about the “Enzyme degradation CDK9 (% remaining) @ 10 μM” value (CDK9) of the same molecule?
**A.** 0/0/0%

**Q.** Which results are given for O=C1CC[C@H](N2C(=O)c3ccc(N4CCC(C(=O)N5CCC(CN6CCN(c7ccc(Nc8ncnc9c8ncn9C8CC(NC(=O)c9c(Cl)cccc9Cl)C8)cc7)CC6)CC5)CC4)cc3C2=O)C(=O)N1 (stereo partly drawn) [Compound 395, 2,6-dichloro-N-((1s,3s)-3-(6-((4-(4-((1-(1-(2-(2,6-dioxopiperidin-3-yl)-1,3-dioxoisoindolin-5-yl)piperidin-4-carbonyl)piperidin-4-yl)methyl)piperazin-1-yl)phenyl)amino)-9H-purin-9-yl)cyclobutyl)benzamide]?
**A.** Enzyme degradation CDK2 (% remaining) @ 0.1 μM (CDK2): 20/20/20%; Enzyme degradation CDK2 (% remaining) @ 1 μM (CDK2): 20/20/20%; Enzyme degradation CDK2 (% remaining) @ 10 μM (CDK2): 20/20/20%; Enzyme degradation CDK9 (% remaining) @ 0.1 μM (CDK9): 0/0/0%; Enzyme degradation CDK9 (% remaining) @ 1 μM (CDK9): 0/0/0%; Enzyme degradation CDK9 (% remaining) @ 10 μM (CDK9): 0/0/0%

**Q.** What does the source list for O=C1CCC(N2C(=O)c3ccc(N4CCC(CN5CCC(CCNc6ncnc7c6ncn7[C@H]6C[C@@H](NC(=O)c7c(Cl)cccc7Cl)C6)CC5)CC4)cc3C2=O)C(=O)N1 (stereo partly drawn) [Compound 396, 2,6-dichloro-N-((1s,3s)-3-(6-((2-(1-((1-(2-(2,6-dioxopiperidin-3-yl)-1,3-dioxoisoindolin-5-yl)piperidin-4-yl)methyl)piperidin-4-yl)ethyl)amino)-9H-purin-9-yl)cyclobutyl)benzamide]?
**A.** Enzyme degradation CDK2 (% remaining) @ 0.1 μM (CDK2): 20%; Enzyme degradation CDK2 (% remaining) @ 1 μM (CDK2): 30%; Enzyme degradation CDK2 (% remaining) @ 10 μM (CDK2): 30%; Enzyme degradation CDK9 (% remaining) @ 0.1 μM (CDK9): 20/20/20%; Enzyme degradation CDK9 (% remaining) @ 1 μM (CDK9): 20/20/20%; Enzyme degradation CDK9 (% remaining) @ 10 μM (CDK9): 20/20/20%

**Q.** O=C1CC[C@H](N2C(=O)c3cc(F)c(N4CCC(CN5CCC(CCNc6ncnc7c6ncn7[C@H]6C[C@@H](NC(=O)c7c(Cl)cccc7Cl)C6)CC5)CC4)cc3C2=O)C(=O)N1 [Compound 397, 2,6-dichloro-N-((1s,3s)-3-(6-((2-(1-((1-(2-(2,6-dioxopiperidin-3-yl)-6-fluoro-1,3-dioxoisoindolin-5-yl)piperidin-4-yl)methyl)piperidin-4-yl)ethyl)amino)-9H-purin-9-yl)cyclobutyl)benzamide] was tested. Which “Enzyme degradation CDK2 (% remaining) @ 0.1 μM” value (CDK2) did it give?
**A.** 50%

**Q.** And the “Enzyme degradation CDK2 (% remaining) @ 1 μM” value (CDK2)?
**A.** 30%

**Q.** What about the “Enzyme degradation CDK2 (% remaining) @ 10 μM” value (CDK2) of the same molecule?
**A.** 30%

**Q.** What about the “Enzyme degradation CDK9 (% remaining) @ 0.1 μM” value (CDK9) of the same molecule?
**A.** 70%

**Q.** And the “Enzyme degradation CDK9 (% remaining) @ 1 μM” value (CDK9)?
**A.** 10%

**Q.** What about the “Enzyme degradation CDK9 (% remaining) @ 10 μM” value (CDK9) of the same molecule?
**A.** 10%

**Q.** What does the source list for O=C1CC[C@H](n2nnc3ccc(N4CCC(CN5CCC(CCNc6ncnc7c6ncn7C6CC(NC(=O)c7c(Cl)cccc7Cl)C6)CC5)CC4)cc3c2=O)C(=O)N1 (stereo partly drawn) [Compound 398, 2,6-dichloro-N-((1s,3s)-3-(6-((2-(1-((1-(3-(2,6-dioxopiperidin-3-yl)-4-oxo-3,4-dihydrobenzo[d][1,2,3]triazin-6-yl)piperidin-4-yl)methyl)piperidin-4-yl)ethyl)amino)-9H-purin-9-yl)cyclobutyl)benzamide]?
**A.** Enzyme degradation CDK2 (% remaining) @ 0.1 μM (CDK2): 20%; Enzyme degradation CDK2 (% remaining) @ 1 μM (CDK2): 30%; Enzyme degradation CDK2 (% remaining) @ 10 μM (CDK2): 30%; Enzyme degradation CDK9 (% remaining) @ 0.1 μM (CDK9): 20%; Enzyme degradation CDK9 (% remaining) @ 1 μM (CDK9): 10%; Enzyme degradation CDK9 (% remaining) @ 10 μM (CDK9): 10%

**Q.** What does the source list for O=C1CC[C@H](N2C(=O)c3ccc(N4CC(C(=O)N5CCC(CN6CCC(CCNc7ncnc8c7ncn8C7CC(NC(=O)c8c(Cl)cccc8Cl)C7)CC6)CC5)C4)cc3C2=O)C(=O)N1 (stereo partly drawn) [Compound 399, 2,6-dichloro-N-((1s,3s)-3-(6-((2-(1-((1-(1-(2-(2,6-dioxopiperidin-3-yl)-1,3-dioxoisoindolin-5-yl)azetidin-3-carbonyl)piperidin-4-yl)methyl)piperidin-4-yl)ethyl)amino)-9H-purin-9-yl)cyclobutyl)benzamide]?
**A.** Enzyme degradation CDK2 (% remaining) @ 0.1 μM (CDK2): 30%; Enzyme degradation CDK2 (% remaining) @ 1 μM (CDK2): 40%; Enzyme degradation CDK2 (% remaining) @ 10 μM (CDK2): 40%; Enzyme degradation CDK9 (% remaining) @ 0.1 μM (CDK9): 0/0/0%; Enzyme degradation CDK9 (% remaining) @ 1 μM (CDK9): 0/0/0%; Enzyme degradation CDK9 (% remaining) @ 10 μM (CDK9): 0/0/0%

**Q.** O=C1CCC(N2C(=O)c3ccc(N4CCC(C(=O)N5CCC(CN6CCC(CCNc7ncnc8c7ncn8[C@H]7C[C@@H](NC(=O)c8c(Cl)cccc8Cl)C7)CC6)CC5)CC4)cc3C2=O)C(=O)N1 (stereo partly drawn) [Compound 400, 2,6-dichloro-N-((1s,3s)-3-(6-((2-(1-((1-(1-(2-(2,6-dioxopiperidin-3-yl)-1,3-dioxoisoindolin-5-yl)piperidin-4-carbonyl)piperidin-4-yl)methyl)piperidin-4-yl)ethyl)amino)-9H-purin-9-yl)cyclobutyl)benzamide] was tested. Which “Enzyme degradation CDK2 (% remaining) @ 0.1 μM” value (CDK2) did it give?
**A.** 30%

**Q.** And the “Enzyme degradation CDK2 (% remaining) @ 1 μM” value (CDK2)?
**A.** 30%

**Q.** And the “Enzyme degradation CDK2 (% remaining) @ 10 μM” value (CDK2)?
**A.** 40%

**Q.** What about the “Enzyme degradation CDK9 (% remaining) @ 0.1 μM” value (CDK9) of the same molecule?
**A.** 0/0/0%

**Q.** What about the “Enzyme degradation CDK9 (% remaining) @ 1 μM” value (CDK9) of the same molecule?
**A.** 0/0/0%

**Q.** What about the “Enzyme degradation CDK9 (% remaining) @ 10 μM” value (CDK9) of the same molecule?
**A.** 0/0/0%
